Here are results for six molecules from patent US9528990B2, “Fluorogenic/fluorescent probes derivative from sulfoxanthene, and use thereof” (bioMérieux, priority 2014, dated 2016).

A short description of assay [1]: Chemically simulated myeloperoxidase activity with sodium hypochlorite. Conditions: about 10 μM, PBS pH 7.4, 150 equivalents sodium hypochlorite, 25° C.; ex 540 nm. The method, then:
A kinetic study of SR101-NaphtO(para-aminophenyl) acid was carried out by incubating this fluorogenic substrate, previously solubilized in phosphate buffered saline (pH 7.4) at a concentration of about 10 μM, with 150 equivalents of sodium hypochlorite, at 25° C.
This chemical procedure using sodium hypochlorite is routinely used to simulate a myeloperoxidase activity (Shepherd et al., Chemistry and Biology, 2007, 14: 1221-1231).
The evolution of the intensity of fluorescence at 650 nm, emitted under an excitation wavelength of 540 nm, was recorded and is presented in FIG. 7.

In a further assay the test system is pig liver esterase (PLE). The experiment in a line: Kinetic study with carboxylesterase. Type of assay: biochemical. Conditions: about 5 μM, PBS pH 7.4, 10 units PLE, 37° C.; ex 540 nm (SR101-NaphtOAc) or 530 nm (SR101-NaphtO-lauric acid). The method, then: 1. A kinetic study of SR101-NaphtOAc was carried out by incubating this fluorogenic substrate, previously solubilized in phosphate buffered saline (pH 7.4) at a concentration of about 5 μM, with 10 units of pig liver esterase (PLE), at 37° C. The evolution of the intensity of fluorescence at 600 nm, emitted under an excitation wavelength of 540 nm, was recorded and is presented in FIG. 5a. 2. A kinetic study of SR101-NaphtO-lauric acid was carried out by incubating this fluorogenic substrate, previously solubilized in phosphate buffered saline (pH 7.4) at a concentration of about 5 μM, with 10 units of pig liver esterase (PLE), at 37° C. The evolution of the intensity of fluorescence at 600 nm, emitted under an excitation wavelength of 530 nm, was recorded and is presented in FIG. 5b.

The test system of a further assay is E. coli K12. Description: Bacterial azoreduction overnight, compared with Methyl Red. Conditions: 100 μM, overnight 37° C. It counts as cell-based. The method, then: a) The bacterial reduction of SR101-Q-CO2H was compared to the one of Methyl Red, an azo dye. Each molecule at 100 μM in Trypcase Soya Broth in presence 7.5*10^7 colonies forming unit (cfu) of E. coli K12 was incubated overnight at 37° C. The fluorescence produced by the azoreduction of Methyl Red was measured at 395 nm under an excitation wavelength of 250 nm. The fluorescence produced by the azoreduction of SR101-Q-CO2H was measured at 580 nm under an excitation wavelength of 550 nm. For Methyl Red the ratio between medium with and without bacteria was 469/184 (×2.5). For SR101-Q-CO2H, it was 19 times upper: 17269/363 (×48).

The test system of assay [2] is E. coli strain (ATCC 25922). Description: Reduction of SR101-NO2 by growing E. coli cells, followed by fluorescence. Conditions: about 10^6 cfu/ml, Trypcase Soya Broth, 37° C.; 0-100 μM as SR101-110/SR101-NO2 about 10/90; ex 550 nm, em 580 nm (FIG. 1c). Type of assay: cell-based, Escherichia coli. The method, then: The reduction of SR101-NO2 by an E. coli strain (ATCC 25922), known for its nitroreduction ability, was analyzed in fluorescence.
This kinetic study was carried out with an initial concentration of cells around 10^6 cfu/ml, growing in Trypcase Soya Broth at 37° C., in presence of different concentrations of fluorogenic substrate (from 0 μM to 100 μM). For this study, said fluorogenic substrate is used in the form of a SR101-110/SR101-NO2 (with a ratio of about 10/90).
The fluorescence at 580 nm was measured, under an excitation wavelength of 550 nm.

The target of assay [3] is nitroreductase from Escherichia coli (NfsA) (Escherichia coli, UniProt P17117). Description: Kinetic study of SR101-NO2 with purified nitroreductase. Type of assay: biochemical. The method, then:
A kinetic study was carried out by incubating the substrate SR101-NO2 in PBS at 37.5° C., at a concentration of about 5 μM.
Successive additions of NADH and nitroreductase from Escherichia coli (NfsA=4×2.5 μg) were performed and the fluorescence at 575 nm (emission maximum of SR101-110) was measured, under an excitation wavelength of 500 nm.

Assay [4] concerns sulfatase from Helix pomatia. The experiment in a line: Kinetic study with sulfatase. It counts as biochemical. Conditions: about 10 μM, PBS pH 7.4, 7.8 units sulfatase, 37° C.; ex 540 nm. The method, then: A kinetic study of SR101-NaphtO(SO3H) was carried out by incubating this fluorogenic substrate, previously solubilized in phosphate buffered saline (pH 7.4) at a concentration of about 10 μM, with 7.8 units of a sulfatase from Helix pomatia, at 37° C. The evolution of the intensity of fluorescence at 600 nm, emitted under an excitation wavelength of 540 nm, was recorded and is presented in FIG. 6.

The mark [5] stands for this setting: emitted fluorescence before and after the reduction (FIG. 1b).

Chain of nitroreductase from Escherichia coli (NfsA) (P17117 whole entry): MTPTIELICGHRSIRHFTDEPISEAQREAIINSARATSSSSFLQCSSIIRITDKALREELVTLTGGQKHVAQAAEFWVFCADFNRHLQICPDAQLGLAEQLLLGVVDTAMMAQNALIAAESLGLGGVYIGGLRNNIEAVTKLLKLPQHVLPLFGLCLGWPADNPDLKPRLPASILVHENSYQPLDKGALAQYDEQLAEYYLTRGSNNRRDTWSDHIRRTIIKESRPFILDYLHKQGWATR

For the molecule `Nc1ccc(Oc2ccc3c4c(ccc3c2)C(c2ccc(S(=O)(=O)O)cc2S(=O)(=O)O)=c2cc3c5c(c2O4)CCC[N+]=5CCC3)cc1` [SR101-NaphtO(para-aminophenyl)], in assay [1], the “fluorescence at 650 nm after addition of sodium hypochlorite” value is given as “remarkable fluorescence enhancement”.
For `CC(=O)Oc1ccc2c3c(ccc2c1)C(c1ccc(S(=O)(=O)[O-])cc1S(=O)(=O)O)=c1cc2c4c(c1O3)CCC[N+]=4CCC2` [SR101-NaphtOAc], in the assay on pig liver esterase (PLE), the “fluorescence at 600 nm after addition of the esterase” value was “remarkable fluorescence enhancement”.
In the case of `CCCCCCCCCCCC(=O)Oc1ccc2c3c(ccc2c1)C(c1ccc(S(=O)(=O)O)cc1S(=O)(=O)O)=c1cc2c4c(c1O3)CCC[N+]=4CCC2` [SR101-NaphtO-lauric acid], the “fluorescence at 600 nm after addition of the esterase” value in the assay on pig liver esterase (PLE) is listed as “remarkable fluorescence enhancement”.
`CN(C)c1ccc(/N=N/c2ccccc2C(=O)O)cc1` [Methyl Red]: the “fluorescence of medium with bacteria” value in the assay on E. coli K12 (Trypcase Soya Broth, 7.5*10^7 cfu, Methyl Red ex 250/em 395 nm, SR101-Q-CO2H ex 550/em 580 nm) was determined as 469. Also, the “ratio between medium with and without bacteria (×)” value in the assay on E. coli K12 worked out at 2.5.
For the molecule `O=[N+]([O-])c1ccc2c(c1)Oc1c3c4c(cc1=C2c1ccc(S(=O)(=O)O)cc1S(=O)(=O)[O-])CCC[N+]=4CCC3` [SR101-NO2], the “nitroreduction by growing cells (fluorescence evolution)” value in assay [2] is “progressive nitroreduction”. For the same molecule, in assay [3] (5 μM substrate, total 10 μg enzyme (4×2.5 μg), after an hour of incubation at 37.5° C.), the “reduction of the substrate by nitroreductase” value is given as “complete reduction”. The “influence of NADH alone on the evolution of the fluorescence” value in assay [3] (NADH 0.5 mM, no enzyme, about 5 μM substrate in PBS, 37.5° C., ex 500 nm, em 575 nm) is listed as “did not influence”. Besides, in assay [3] (setting [5]), the “fluorescence enhancement (factor)” value amounted to 15 and the quenching efficiency turned out to be 92%.
As to `O=S(=O)(O)Oc1ccc2c3c(ccc2c1)C(c1ccc(S(=O)(=O)[O-])cc1S(=O)(=O)O)=c1cc2c4c(c1O3)CCC[N+]=4CCC2` [SR101-NaphtO(SO3H)], the “fluorescence at 600 nm after addition of the sulfatase” value in assay [4] was “remarkable fluorescence enhancement”.
